Experimental data as given in patent US5358945A, “Pyrimidine compound and pharmaceutically acceptable salts thereof” (Mitsui Petrochemical Industries, Ltd., priority 1990, dated 1994).
Where a name gives a salt, the structure may show the parent alone.

Columns and labels:
[1] = tested on: Mouse neuro 2a cells; test: Neurite outgrowth of mouse neuroblastoma neuro 2a cells (Table 7); format: cell-based; settings: 0.3 mM; mean ± S.D.; hydrochloride
Outline: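 Neuro-2a cells seeded at 1,000 cells/well in DMEM with 10% FCS, cultured one day at 37 °C, 5% CO2, then 24 h with compound (up to 6 concentrations, triplicate). Fixed with glutaraldehyde, methylene blue stained; percentage of cells bearing neurites ≥2× cell long diameter counted microscopically (>200 cells).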

[2] = tested on: crushed sciatic nerves; test: Recovery of the interdigital distance in rats with crushed sciatic nerves (Table 9); format: in vivo, rat (male Wistar)
Description: Rats whose sciatic nerves were crushed were prepared as a model for peripheral nervous disorders and the effects of the compounds of this invention on it were tested. It was made clear that the compounds of the present invention have an effect of promoting recovery of the interdigit distance and the weight of the soleus muscle to normal values.
Curative effect on rats with crushed sciatic nerves: The curing effect of the compound of the invention was tested on rats having crushed sciatic nerves as a model of peripheral nervous disorder using (1) a change in the action of the hind paw with the crushed sciatic nerves and (2) a change in the weight of the muscle as an index of the course of degeneration and regeneration of peripheral nerves.
In the experiment, male Wistar rats (6 weeks old), 10-15 per group, were used. The sciatic nerves were crushed by a method similar to the method of Yamatsu et al. (see Kiyomi Yamatsu, Takenori Kaneko, Akifumi Kitahara and Isao Ohkawa, Journal of Japanese Pharmacological Society, 72, 259-268 (1976) and the method of Hasegawa et al. (see Kazuo Hasegawa, Naoji Mikuni and Yutaka Sakai, Journal of Japanese Pharmacological Society, 7 4 721-734 (1978). Specifically, under anesthesia with pentobarbital (40 mg/kg, i.p.), the left side sciatic nerve was exposed at the femur and a given site was crushed with hemostat (2ram in width) for 30 seconds. After crushing, the operated site was immediately sitched. Vincristine, known to delay the regeneration of peripheral nerves, was administered intraperitoneally at 100 μg/kg per week.
Test compounds selected from the compounds of the invention were administered intraperitoneally or orally once a day from the day of operation to the 30th day. A group to which 0.9% saline was administered was used as control.
According to the method of Hasegawa [Hasegawa, K., Experientia, 34, 750-751 ( 1978)], the distance between the first and fifth digits of the hind paw was measured and the ratio of a crushed-side distance to a normal-side distance was calculated.
*Compound 274 is orally administered to a group of rats with the crushed

[3] = tested on: Mouse neuroblastoma cells NS-20Y; test: Neurite appearance in mouse neuroblastoma NS-20Y cells (Table 8); format: cell-based; settings: hydrochloride;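 also: cells grown in polyornithine-coated dishes, with timing counted from the start of culture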
[4] = tested on: mouse; test: Acute toxicity in mouse (Table 10); format: in vivo; settings: in vivo, ip
Description: The acute toxicity of the compounds of the invention was examined by the following method.
Male ddy-strain 5-week old mice, 4-6 per group, were used as experimental animals. Each of the compounds was dissolved or suspended in saline and administered perorally (p.o.) or intraperitoneally (i.p.), and the toxicity of the compound was assessed 24 hours after the administration.

With `O=C1CCCN1c1ccnc(N2CCCCC2)n1` [Compound 274, 4-(2-oxopyrrolidino)-2-(4-piperidino) pyrimidine hydrochloride] the “Ratio of the number of cells having neurites with a length of at least two times as large as the diameter of cells to the total number of cells” value [1] was 25.8 ± 3.5%, the “Rate of recovery of the interdigital distance” value (“Rate” for short) ([2]; 7.5 mg/kg orally, 7 days after crush) was 42.6 ± 6.8% and the “Rate” value ([2]; 7.5 mg/kg orally, 14 days after crush) was 37.6%. The “Rate” value ([2]; 7.5 mg/kg orally, 16 days after crush) was 38.4%, the “Rate” value ([2]; 7.5 mg/kg orally, 18 days after crush) was 40.9 ± 6.2% and the “Rate” value ([2]; 7.5 mg/kg orally, 20 days after crush) was 45.6 ± 14.0%. The “Rate” value ([2]; 7.5 mg/kg orally, 22 days after crush) was 46.8 ± 13.2%, the “Rate” value ([2]; 7.5 mg/kg orally, 24 days after crush) was 48.2% and the “Rate” value ([2]; 7.5 mg/kg orally, 26 days after crush) was 54.8%. The “Rate” value ([2]; 7.5 mg/kg orally, 28 days after crush) was 66.9 ± 19.6%, the “Rate” value ([2]; 7.5 mg/kg orally, 30 days after crush) was 64.0 ± 21.2% and the “Rate” value ([2]; 15 mg/kg orally, 7 days after crush) was 39.8 ± 5.2%. For the same compound, the “Rate” value ([2]; 15 mg/kg orally, 14 days after crush) was 38.2%, the “Rate” value ([2]; 15 mg/kg orally, 16 days after crush) was 39.4% and the “Rate” value ([2]; 15 mg/kg orally, 18 days after crush) was 40.5 ± 4.2%. The “Rate” value ([2]; 15 mg/kg orally, 20 days after crush) was 46.7 ± 7.3%, the “Rate” value ([2]; 15 mg/kg orally, 22 days after crush) was 50.0 ± 10.0% and the “Rate” value ([2]; 15 mg/kg orally, 24 days after crush) was 56.8%. The “Rate” value ([2]; 15 mg/kg orally, 26 days after crush) was 62.2%, the “Rate” value ([2]; 15 mg/kg orally, 28 days after crush) was 65.5 ± 19.8% and the “Rate” value ([2]; 15 mg/kg orally, 30 days after crush) was 70.1 ± 21.4%. For the same compound, the “Rate” value ([2]; 30 mg/kg orally, 7 days after crush) was 38.8 ± 4.4%, the “Rate” value ([2]; 30 mg/kg orally, 14 days after crush) was 39.2% and the “Rate” value ([2]; 30 mg/kg orally, 16 days after crush) was 38.3%. For the same compound, the “Rate” value ([2]; 30 mg/kg orally, 18 days after crush) was 40.8 ± 4.5%, the “Rate” value ([2]; 30 mg/kg orally, 20 days after crush) was 43.8 ± 6.7% and the “Rate” value ([2]; 30 mg/kg orally, 22 days after crush) was 47.8 ± 11.5%. For the same compound, the “Rate” value ([2]; 30 mg/kg orally, 24 days after crush) was 57.0%, the “Rate” value ([2]; 30 mg/kg orally, 26 days after crush) was 60.9% and the “Rate” value ([2]; 30 mg/kg orally, 30 days after crush) was 73.6 ± 20.0%. The “The number of cells in which neurites appeared/Total number of cells” value ([3]; 24 hour, 0.1 mM) was 4/50, the “The number of cells in which neurites appeared/Total number of cells” value ([3]; 24 hour, 0.2 mM) was 6/50 and the “The number of cells in which neurites appeared/Total number of cells” value ([3]; 48 hour, 0.2 mM) was 4/50. For the same compound, the “The number of cells in which neurites appeared/Total number of cells” value ([3]; 48 hour, 0.5 mM) was 6/50 and the “Estimated LD50” value [4] was 250 to 500 mg/kg.
